The text below walks through data of patent US4391824A, “Ureylenebis (hydroxy naphthalenesulfonic acids)” (American Cyanamid Company, priority 1981, dated 1983).

“And” between values parts separate entries of the source, which are not always exact repeats. Equal values may be shown once. Where a name gives a salt, the structure may show the parent alone.

The term inhibition denotes the drop in the measured response relative to a control, in per cent.

In test [1] the target is T1, human skin fibroblast collagenase (Homo sapiens, UniProt P03956).
T1 construct: endogenous in cells; host or cells: human skin fibroblasts (from the enzyme's name; preparation not described)
T1 sequence (P03956 100-469): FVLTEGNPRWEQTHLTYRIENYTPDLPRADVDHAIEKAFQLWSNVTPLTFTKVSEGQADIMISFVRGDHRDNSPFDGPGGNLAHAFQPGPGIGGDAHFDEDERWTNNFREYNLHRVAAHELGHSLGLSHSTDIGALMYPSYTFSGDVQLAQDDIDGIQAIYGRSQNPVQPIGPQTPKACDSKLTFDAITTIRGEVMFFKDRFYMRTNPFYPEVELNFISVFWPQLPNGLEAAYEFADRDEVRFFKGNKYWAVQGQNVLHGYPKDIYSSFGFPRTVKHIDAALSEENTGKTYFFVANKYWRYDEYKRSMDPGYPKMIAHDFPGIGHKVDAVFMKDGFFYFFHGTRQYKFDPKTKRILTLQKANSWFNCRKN
Kind of test: Collagenase Assay, Test Code 006 (degradation of 14C-labeled native collagen fibrils). The format is biochemical. Conditions: 16 hours at 37° C., based on 0% value for enzyme control; for inhibition at 30 µg/mL / % Inhibition of Collagenase: test concentration 30 μg/ml. How it is done: Collagenase assays were performed by a modification of the method of Harper, et. al., Biochem. 10: 3035 (1971). In a typical assay (total volume of 0.45 ml), 100 μl of the activated enzyme was added to the 14 C-labeled collagen fibrils (250 μl) followed by 100 μl of 50 mM cacodylate, pH 7.4, containing 5 mM calcium chloride. After incubation at 37° C. for 16 hours, the tubes were centrifuged in a Beckman microfuge for five minutes at full speed. An aliquot (200 μl) of the supernatant, representing collagenase digestion products of the fibril, was assayed for radioactivity. The effect of the test compound on collagen degradation by collagenase was examined as follows:
Varying concentrations of the test compound (in distilled water or dimethylacetamide) were added to the assay tubes containing active collagenase (total volume 450 μl) and after 16 hours the amount of radioactivity in the supernatant was determined. Appropriate blanks and trypsin controls were run in parallel.
The activities are expressed as % inhibition (lowering) of collagenase activity, i.e., based on the 0% value for the enzyme control.

In test [2] the test system is collagenase. Conditions: collagenase, or a proteinase contaminant in the collagenase preparation; cited from earlier work.
In test [3] the test system is corneal ulceration. Conditions: human; cited from earlier work.
Test [4] concerns corneal ulcerations. Conditions: alkali burned rabbit, eye; cited from earlier work.

Regarding `O=C(Nc1cccc(C(=O)Nc2cc(S(=O)(=O)O)cc3cc(S(=O)(=O)O)cc(O)c23)c1)Nc1cccc(C(=O)Nc2cc(S(=O)(=O)O)cc3cc(S(=O)(=O)O)cc(O)c23)c1` [4,4'[Ureylenebis(m-phenylenecarbonylimino)]bis[5-hydroxy-2,7-naphthalenedisulfonic acid]tetrasodium salt], the inhibition at 30 µg/mL in test [1] is 41%.
As for `Cc1ccc(NC(=O)Nc2ccc(C)c(C(=O)Nc3cc(S(=O)(=O)O)cc4cc(S(=O)(=O)O)cc(O)c34)c2)cc1C(=O)Nc1cc(S(=O)(=O)O)cc2cc(S(=O)(=O)O)cc(O)c12` [4,4'-[Ureylenebis(6-methyl-3,1-phenylenecarbonylimino)]bis[5-hydroxy-2,7-naphthalenedisulfonic acid]tetrasodium salt], in test [1], the “% Inhibition of Collagenase” value is 36% and 35%; the inhibition at 30 µg/mL was determined as 50%. Also, 60 µg/mL produced 39% inhibition in test [1] (test concentration 60 μg/ml).
Take `Cc1ccc(C(=O)Nc2ccc(S(=O)(=O)O)c3cc(S(=O)(=O)O)cc(S(=O)(=O)O)c23)cc1NC(=O)c1cccc(NC(=O)Nc2cccc(C(=O)Nc3cc(C(=O)Nc4ccc(S(=O)(=O)O)c5cc(S(=O)(=O)O)cc(S(=O)(=O)O)c45)ccc3C)c2)c1` [Suramin]: in test [2], the “inhibition of the activity of collagenase” value is given as “not inhibiting the action of collagenase”.
Take `CC(=O)N[C@@H](CS)C(=O)O` [acetylcysteine]: the “effectiveness in treatment of acute and chronic corneal ulceration” value in test [3] is given as “effective”. The frequency of ulceration entry in test [4] is on record as “reduce the frequency of ulceration”.
As for `Cc1c(NC(=O)Nc2cccc(C(=O)Nc3cc(S(=O)(=O)O)cc4cc(S(=O)(=O)O)cc(O)c34)c2C)cccc1C(=O)Nc1cc(S(=O)(=O)O)cc2cc(S(=O)(=O)O)cc(O)c12` [4,4'-[Ureylenebis(2-methyl-3,1-phenylenecarbonylimino)]bis[5-hydroxy-2,7-naphthalenedisulfonic acid]tetrasodium salt], in test [1], the “% Inhibition of Collagenase” value was 45% and 30 µg/mL produced 32.2% inhibition.
For `O=C([O-])CN(CCN(CC(=O)[O-])CC(=O)[O-])CC(=O)[O-].[Ca+2].[Ca+2]` [Calcium ethylenediaminetetraacetate], in test [4], the frequency of ulceration result is recorded as “reduce the frequency of ulceration”.
As for `O=C(Nc1ccc(C(=O)Nc2cccc3cc(S(=O)(=O)O)cc(O)c23)c(S(=O)(=O)O)c1)Nc1ccc(C(=O)Nc2cccc3cc(S(=O)(=O)O)cc(O)c23)c(S(=O)(=O)O)c1` [5,5'-[Ureylenebis(2-sulfo-4,1-phenylenecarbonylimino)]bis[4-hydroxy-2-naphthalenesulfonic acid]tetrasodium salt], the inhibition at 30 µg/mL in test [1] was 58%.
Take `N[C@@H](CS)C(=O)O` [cysteine]: in test [3], the “effectiveness in treatment of acute and chronic corneal ulceration” value is “effective”.
Consider `Cc1cc(C(=O)Nc2cc(S(=O)(=O)O)cc3cc(S(=O)(=O)O)cc(O)c23)ccc1NC(=O)Nc1ccc(C(=O)Nc2cc(S(=O)(=O)O)cc3cc(S(=O)(=O)O)cc(O)c23)cc1C` [4,4'-[Ureylenebis(3-methyl-p-phenylenecarbonylimino)]bis[5-hydroxy-2,7-naphthalenedisulfonic acid]tetrasodium salt], for which the inhibition at 30 µg/mL in test [1] was 78%.
In test [1], `O=C(Nc1cccc(C(=O)Nc2cc3c(O)cc(S(=O)(=O)O)cc3cc2S(=O)(=O)O)c1)Nc1cccc(C(=O)Nc2cc3c(O)cc(S(=O)(=O)O)cc3cc2S(=O)(=O)O)c1` [3,3'-[Ureylenebis(m-phenylenecarbonylimino)]bis[5-hydroxy-2,7-naphthalenedisulfonic acid]tetrasodium salt] showed an inhibition at 30 µg/mL of 41%.
Consider `Cc1cc(-c2ccc(/N=N/c3c(S(=O)(=O)O)cc4cc(S(=O)(=O)O)cc(N)c4c3O)c(C)c2)ccc1/N=N/c1c(S(=O)(=O)O)cc2cc(S(=O)(=O)O)cc(N)c2c1O` [trypan blue], for which the “inhibition of the activity of collagenase” value in test [2] is “inhibiting the activity of collagenase”.
